Measured values from PubChem BioAssay (NCI).
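The compound was tested at five concentrations on cells cultured in 96-well plates, with a 48-hour exposure period. Definition used: TGI = concentration required for complete inhibition of growth.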

Assays:
Test in all cases: NCI-60 cell line screen, 48 h
SR leukemia = tested on: SR leukemia
PC-3 prostate = tested on: PC-3 prostate
CAKI-1 renal = tested on: CAKI-1 renal
SK-MEL-28 melanoma = tested on: SK-MEL-28 melanoma
MDA-MB-231 breast = tested on: MDA-MB-231 breast
MDA-N = tested on: MDA-N
SNB-19 CNS = tested on: SNB-19 CNS
NCI-H522 lung = tested on: NCI-H522 lung
HCT-15 colon = tested on: HCT-15 colon
UACC-257 melanoma = tested on: UACC-257 melanoma
HCT-116 colon = tested on: HCT-116 colon
SF-268 CNS = tested on: SF-268 CNS
A498 renal = tested on: A498 renal
SK-OV-3 ovarian = tested on: SK-OV-3 ovarian
SF-539 CNS = tested on: SF-539 CNS
HT29 colon = tested on: HT29 colon
MDA-MB-435 = tested on: MDA-MB-435
NCI-H226 lung = tested on: NCI-H226 lung
NCI-H23 lung = tested on: NCI-H23 lung
SN12C renal = tested on: SN12C renal
HOP-62 NSCLC = tested on: HOP-62 NSCLC
A549 NSCLC = tested on: A549 NSCLC
RPMI-8226 leukemia = tested on: RPMI-8226 leukemia
HS 578T breast = tested on: HS 578T breast
RXF 393 renal = tested on: RXF 393 renal
786-0 renal = tested on: 786-0 renal
MOLT-4 leukemia = tested on: MOLT-4 leukemia
NCI/ADR-RES ovarian = tested on: NCI/ADR-RES ovarian
HL-60(TB) leukemia = tested on: HL-60(TB) leukemia
CCRF-CEM leukemia = tested on: CCRF-CEM leukemia
OVCAR-5 ovarian = tested on: OVCAR-5 ovarian
SK-MEL-5 melanoma = tested on: SK-MEL-5 melanoma
UO-31 renal = tested on: UO-31 renal
KM12 colon = tested on: KM12 colon
DU-145 prostate = tested on: DU-145 prostate
NCI-H460 lung = tested on: NCI-H460 lung
OVCAR-8 ovarian = tested on: OVCAR-8 ovarian
U251 CNS = tested on: U251 CNS
IGROV1 ovarian = tested on: IGROV1 ovarian
SW-620 colon = tested on: SW-620 colon
BT-549 breast = tested on: BT-549 breast
HOP-92 NSCLC = tested on: HOP-92 NSCLC
SNB-75 CNS = tested on: SNB-75 CNS
ACHN renal = tested on: ACHN renal
K-562 leukemia = tested on: K-562 leukemia
TK-10 renal = tested on: TK-10 renal
OVCAR-3 ovarian = tested on: OVCAR-3 ovarian
SF-295 CNS = tested on: SF-295 CNS
SK-MEL-2 melanoma = tested on: SK-MEL-2 melanoma
EKVX NSCLC = tested on: EKVX NSCLC
COLO 205 colon = tested on: COLO 205 colon
LOX IMVI melanoma = tested on: LOX IMVI melanoma
MALME-3M melanoma = tested on: MALME-3M melanoma
T-47D breast = tested on: T-47D breast
OVCAR-4 ovarian = tested on: OVCAR-4 ovarian
M14 melanoma = tested on: M14 melanoma

Compound: Clc1ccc(-c2ccc(-c3nn4c(CNc5ccccc5)nnc4s3)o2)c(Cl)c1
- TGI (SR leukemia): > 100 µM
- TGI (PC-3 prostate): > 100 µM
- TGI (CAKI-1 renal): > 100 µM
- TGI (SK-MEL-28 melanoma): > 100 µM
- TGI (MDA-MB-231 breast): > 100 µM
- TGI (MDA-N): > 100 µM
- TGI (SNB-19 CNS): > 100 µM
- TGI (NCI-H522 lung): > 100 µM
- TGI (HCT-15 colon): > 100 µM
- TGI (UACC-257 melanoma): > 100 µM
- TGI (HCT-116 colon): > 100 µM
- TGI (SF-268 CNS): > 100 µM
- TGI (A498 renal): > 100 µM
- TGI (SK-OV-3 ovarian): > 100 µM
- TGI (SF-539 CNS): 76.4 µM
- TGI (HT29 colon): > 100 µM
- TGI (MDA-MB-435): > 100 µM
- TGI (NCI-H226 lung): > 100 µM
- TGI (NCI-H23 lung): > 100 µM
- TGI (SN12C renal): > 100 µM
- TGI (HOP-62 NSCLC): > 100 µM
- TGI (A549 NSCLC): > 100 µM
- TGI (RPMI-8226 leukemia): > 100 µM
- TGI (HS 578T breast): > 100 µM
- TGI (RXF 393 renal): 86.2 µM
- TGI (786-0 renal): > 100 µM
- TGI (MOLT-4 leukemia): > 100 µM
- TGI (NCI/ADR-RES ovarian): > 100 µM
- TGI (HL-60(TB) leukemia): > 100 µM
- TGI (CCRF-CEM leukemia): > 100 µM
- TGI (OVCAR-5 ovarian): > 100 µM
- TGI (SK-MEL-5 melanoma): > 100 µM
- TGI (UO-31 renal): > 100 µM
- TGI (KM12 colon): > 100 µM
- TGI (DU-145 prostate): > 100 µM
- TGI (NCI-H460 lung): > 100 µM
- TGI (OVCAR-8 ovarian): > 100 µM
- TGI (U251 CNS): > 100 µM
- TGI (IGROV1 ovarian): > 100 µM
- TGI (SW-620 colon): > 100 µM
- TGI (BT-549 breast): > 100 µM
- TGI (HOP-92 NSCLC): > 100 µM
- TGI (SNB-75 CNS): > 100 µM
- TGI (ACHN renal): > 100 µM
- TGI (K-562 leukemia): > 100 µM
- TGI (TK-10 renal): > 100 µM
- TGI (OVCAR-3 ovarian): > 100 µM
- TGI (SF-295 CNS): > 100 µM
- TGI (SK-MEL-2 melanoma): > 100 µM
- TGI (EKVX NSCLC): > 100 µM
- TGI (COLO 205 colon): > 100 µM
- TGI (LOX IMVI melanoma): > 100 µM
- TGI (MALME-3M melanoma): > 100 µM
- TGI (T-47D breast): > 100 µM
- TGI (OVCAR-4 ovarian): > 100 µM
- TGI (M14 melanoma): > 100 µM
